Laboratory results published in the supplement of paper PMC11061612.

Legend:
AZD1775 = compound: C=CCn1c(=O)c2cnc(Nc3ccc(N4CCN(C)CC4)cc3)nc2n1-c1cccc(C(C)(C)O)n1 [AZD1775]
In short: (§1)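 After 24 hours at 37°C and 5% CO2 in 1536-well plates holding 7.5 μl of DMEM/F12 or RPMI with 10% FBS, cancer cell lines were dosed for 72 hours, with final DMSO typically 0.2%. Viability came from CellTiter-Glo 2.0 luminescence, scaled between the means of blank wells and DMSO wells. A non-linear mixed effects model fitted a two-parameter logistic curve to each dose response to give the single-agent IC50.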

Alisertib = compound: COc1cc(Nc2ncc3c(n2)-c2ccc(Cl)cc2C(c2c(F)cccc2OC)=NC3)ccc1C(=O)O [Alisertib]; conditions: max 10 µM
In short: as §1

Palbociclib = compound: CC(=O)c1c(C)c2cnc(Nc3ccc(N4CCNCC4)cn3)nc2n(C2CCCC2)c1=O [Palbociclib]; conditions: max 10 µM
In short: as §1

AZD1390 = compound: CC(C)n1c(=O)n(C)c2cnc3cc(F)c(-c4ccc(OCCCN5CCCCC5)nc4)cc3c21 [AZD1390]; conditions: max 0.3 µM
In short: as §1

Prexasertib = compound: COc1cccc(OCCCN)c1-c1cc(Nc2cnc(C#N)cn2)n[nH]1 [Prexasertib]; conditions: max 1 µM
In short: as §1

Dasatinib = compound: CC1=C(C(=CC=C1)Cl)NC(=O)C2=CN=C(S2)NC3=CC(=NC(=N3)C)N4CCN(CC4)CCO [Dasatinib]; conditions: max 2 µM
In short: as §1

SN-38 = compound: CCc1c2c(nc3ccc(O)cc13)-c1cc3c(c(=O)n1C2)COC(=O)[C@]3(O)CC [SN-38]; conditions: max 0.3 µM
In short: as §1

Olaparib = compound: O=C(c1cc(Cc2n[nH]c(=O)c3ccccc23)ccc1F)N1CCN(C(=O)C2CC2)CC1 [Olaparib]; conditions: max 10 µM
In short: as §1

SG3199 = compound: CC1=CN2[C@@H](C1)C=NC3=CC(=C(C=C3C2=O)OC)OCCCCCOC4=C(C=C5C(=C4)N=C[C@@H]6CC(=CN6C5=O)C)OC [SG3199]; conditions: max 0.001 µM
In short: as §1

Capivasertib = compound: C1CN(CCC1(C(=O)N[C@@H](CCO)C2=CC=C(C=C2)Cl)N)C3=NC=NC4=C3C=CN4 [Capivasertib]
In short: as §1

AZD8186 = compound: C[C@@H](Nc1cc(F)cc(F)c1)c1cc(C(=O)N(C)C)cc2c(=O)cc(N3CCOCC3)oc12 [AZD8186]; conditions: max 3 µM
In short: as §1

Savolitinib = compound: C[C@@H](c1ccc2nccn2c1)n1nnc2ncc(-c3cnn(C)c3)nc21 [Savolitinib]; conditions: max 1 µM
In short: as §1

Trametinib = compound: CC(=O)Nc1cccc(-n2c(=O)n(C3CC3)c(=O)c3c(Nc4ccc(I)cc4F)n(C)c(=O)c(C)c32)c1 [Trametinib]; conditions: max 1 µM
In short: as §1

Venetoclax = compound: CC1(C)CCC(CN2CCN(c3ccc(C(=O)NS(=O)(=O)c4ccc(NCC5CCOCC5)c([N+](=O)[O-])c4)c(Oc4cnc5[nH]ccc5c4)c3)CC2)=C(c2ccc(Cl)cc2)C1 [Venetoclax]; conditions: max 1 µM
In short: as §1

AZD0156 = compound: CN(C)CCCOc1ccc(-c2ccc3ncc4c(c3c2)n(C2CCOCC2)c(=O)n4C)cn1 [AZD0156]
In short: as §1

Crizotinib = compound: C[C@@H](Oc1cc(-c2cnn(C3CCNCC3)c2)cnc1N)c1c(Cl)ccc(F)c1Cl [Crizotinib]; conditions: max 10 µM
In short: as §1

AZD6738 = compound: C[C@@H]1COCCN1C2=NC(=NC(=C2)C3(CC3)[S@](=N)(=O)C)C4=C5C=CNC5=NC=C4 [AZD6738]; conditions: max 10 µM
In short: as §1

AZD5153 = compound: COc1nnc2ccc(N3CCC(c4ccc(OCCN5CCN(C)C(=O)[C@H]5C)cc4)CC3)nn12 [AZD5153]; conditions: max 1 µM
In short: as §1

Doxorubicin = compound: COc1cccc2c1C(=O)c1c(O)c3c(c(O)c1C2=O)C[C@@](O)(C(=O)CO)C[C@@H]3O[C@H]1C[C@H](N)[C@H](O)[C@H](C)O1 [Doxorubicin]; conditions: max 1 µM
In short: as §1

AZD2811 = compound: CCN(CCO)CCCOc1ccc2c(Nc3cc(CC(=O)Nc4cccc(F)c4)[nH]n3)ncnc2c1 [AZD2811]; conditions: max 1 µM
In short: as §1

Selumetinib = compound: Cn1cnc2c(F)c(Nc3ccc(Br)cc3Cl)c(C(=O)NOCCO)cc21 [Selumetinib]; conditions: max 10 µM
In short: as §1

AZD7648 = compound: Cc1cc2ncnn2cc1Nc1ncc2c(n1)n(C1CCOCC1)c(=O)n2C [AZD7648]; conditions: max 10 µM
In short: as §1

Gefitinib = compound: COc1cc2ncnc(Nc3ccc(F)c(Cl)c3)c2cc1OCCCN1CCOCC1 [Gefitinib]; conditions: max 10 µM
In short: as §1

AZD4320 = compound: CN(CC[C@H](CSC1=CC=CC=C1)NC2=C(C=C(C=C2)S(=O)(=O)NC(=O)C3=CC=C(C=C3)N4CCC(CC4)[C@H](C5=CC=CC=C5C6=CC=C(C=C6)Cl)O)S(=O)(=O)C(F)(F)F)CCO [AZD4320]; conditions: max 1 µM
In short: as §1

AZD5991 = compound: Cc1c2c(nn1C)CSCc1cc(n(C)n1)CSc1cc(c3ccccc3c1)OCCCc1c(C(=O)O)n(C)c3c-2c(Cl)ccc13 [AZD5991]; conditions: max 1 µM
In short: as §1

Lapatinib = compound: CS(=O)(=O)CCNCc1ccc(-c2ccc3ncnc(Nc4ccc(OCc5cccc(F)c5)c(Cl)c4)c3c2)o1 [Lapatinib]; conditions: max 10 µM
In short: as §1

Taselisib = compound: Cc1nc(-c2cn3c(n2)-c2ccc(-c4cnn(C(C)(C)C(N)=O)c4)cc2OCC3)n(C(C)C)n1 [Taselisib]; conditions: max 10 µM
In short: as §1

Row | Cell Line | IC50, cell viability 72 h (AZD1775; max 3 µM) | IC50, cell viability 72 h (Alisertib) | IC50, cell viability 72 h (Palbociclib) | IC50, cell viability 72 h (AZD1390) | IC50, cell viability 72 h (Prexasertib) | IC50, cell viability 72 h (Dasatinib) | IC50, cell viability 72 h (SN-38) | IC50, cell viability 72 h (Olaparib) | IC50, cell viability 72 h (SG3199) | IC50, cell viability 72 h (Capivasertib; max 10 µM) | IC50, cell viability 72 h (AZD8186) | IC50, cell viability 72 h (Savolitinib) | IC50, cell viability 72 h (Trametinib) | IC50, cell viability 72 h (Venetoclax) | IC50, cell viability 72 h (AZD0156; max 3 µM) | IC50, cell viability 72 h (Crizotinib) | IC50, cell viability 72 h (AZD6738) | IC50, cell viability 72 h (AZD5153) | IC50, cell viability 72 h (Doxorubicin) | IC50, cell viability 72 h (AZD2811) | IC50, cell viability 72 h (Selumetinib) | IC50, cell viability 72 h (AZD7648) | IC50, cell viability 72 h (Gefitinib) | IC50, cell viability 72 h (AZD4320) | IC50, cell viability 72 h (AZD5991) | IC50, cell viability 72 h (Lapatinib) | IC50, cell viability 72 h (Taselisib) | IC50, cell viability 72 h (Capivasertib; max 3 µM) | IC50, cell viability 72 h (AZD1775; max 1 µM) | IC50, cell viability 72 h (AZD0156; max 1 µM)
1 | HCC2157 (Breast Carcinoma) | > 3000 nM | 454 nM | > 10000 nM | > 300 nM | 22.5 nM | > 2000 nM | 14.1 nM | > 10000 nM | > 1 nM | 307 nM | 667 nM | > 1000 nM | > 1000 nM | > 1000 nM | > 3000 nM | 4090 nM | 2490 nM | 12.6 nM | > 1000 nM | 182 nM | > 10000 nM | > 10000 nM | 4410 nM | 72.1 nM | 24.4 nM | 60.2 nM | 222 nM |  |  | 
2 | HPAC (Pancreatic Carcinoma) | 1500 nM | 3960 nM | > 10000 nM | > 300 nM | 81.6 nM | > 2000 nM | > 300 nM | > 10000 nM | > 1 nM | > 10000 nM | > 3000 nM | > 1000 nM | 22.7 nM | > 1000 nM | > 3000 nM | 6650 nM | > 10000 nM | 579 nM | > 1000 nM | > 1000 nM | 3160 nM | > 10000 nM | > 10000 nM | > 1000 nM | > 1000 nM | > 10000 nM | 2380 nM |  |  | 
3 | IGR-1 (Melanoma) | > 3000 nM | > 10000 nM | > 10000 nM | > 300 nM | 617 nM | > 2000 nM | > 300 nM | > 10000 nM | > 1 nM | > 10000 nM | > 3000 nM | > 1000 nM | > 1000 nM | > 1000 nM | > 3000 nM | 6250 nM | > 10000 nM | > 1000 nM | > 1000 nM | > 1000 nM | > 10000 nM | > 10000 nM | > 10000 nM | > 1000 nM | > 1000 nM | 8830 nM | > 10000 nM |  |  | 
4 | J82 (Bladder Carcinoma) | > 3000 nM | > 10000 nM | > 10000 nM | > 300 nM | > 1000 nM | > 2000 nM | 80.5 nM | > 10000 nM | > 1 nM | > 10000 nM | > 3000 nM | > 1000 nM | > 1000 nM | > 1000 nM | > 3000 nM | > 10000 nM | > 10000 nM | > 1000 nM | > 1000 nM | > 1000 nM | > 10000 nM | > 10000 nM | > 10000 nM | > 1000 nM | > 1000 nM | > 10000 nM | > 10000 nM |  |  | 
5 | JiyoyeP-2003 (Burkitt's Lymphoma) | 597 nM | 271 nM | 4700 nM | > 300 nM | 11.7 nM | 1020 nM | 14.1 nM | > 10000 nM | > 1 nM | 2320 nM | > 3000 nM | > 1000 nM | > 1000 nM | > 1000 nM | > 3000 nM | > 10000 nM | 1370 nM | 49.2 nM | 172 nM | > 1000 nM | > 10000 nM | > 10000 nM | > 10000 nM | 403 nM | 814 nM | > 10000 nM | 9670 nM |  |  | 
6 | LU-99A (Non-Small Cell Lung Carcinoma) | > 3000 nM | > 10000 nM | > 10000 nM | > 300 nM | 77.1 nM | 1510 nM | 39.7 nM | > 10000 nM | > 1 nM | > 10000 nM | > 3000 nM | > 1000 nM | 163 nM | > 1000 nM | > 3000 nM | > 10000 nM | > 10000 nM | > 1000 nM | 577 nM | > 1000 nM | > 10000 nM | > 10000 nM | > 10000 nM | > 1000 nM | > 1000 nM | > 10000 nM | 3080 nM |  |  | 
7 | NB(TU)1-10 (Neuroblastoma) | 835 nM |  |  |  | 8.06 nM |  | 17 nM | > 10000 nM | > 1 nM |  |  |  |  |  | > 3000 nM |  | 6880 nM |  | 468 nM | > 1000 nM |  | > 10000 nM |  |  |  |  |  | > 3000 nM |  | 
8 | NCI-H1694 (Small Cell Lung Carcinoma) |  | > 10000 nM | > 10000 nM | > 300 nM | 66.9 nM | > 2000 nM | 3.95 nM | > 10000 nM | > 1 nM | > 10000 nM | > 3000 nM | > 1000 nM | > 1000 nM | > 1000 nM |  | > 10000 nM | 9060 nM | > 1000 nM | 727 nM | > 1000 nM | > 10000 nM | > 10000 nM | > 10000 nM | 462 nM | 109 nM | > 10000 nM | > 10000 nM |  | > 1000 nM | > 1000 nM
